SMILES strings stand for the structures.

Assay [1] deals with tumor tissues of mice (PC3/PSC27 xenografts). The assay can be described thus: In vivo cellular senescence and SASP expression in xenograft tumors (LCM transcripts, SA-β-Gal staining). More on the design: species or system SCID mice. From the text: FIG. 66. Transcript assessment of several canonical SASP factors expressed in stromal cells isolated from tumors in SCID mice. LCM isolation, total RNA preparation and expression assays on tissues from animals with simultaneously implanted stromal cells and cancer cells. Note that the group measured as of the lowest value was used as normalization baseline per factor.
FIG. 67. Transcript assessment of individual canonical SASP factors (AREG), aging markers (p16/p21) and PDK4 expressed in stromal cells isolated from tumors in SCID mice. LCM isolation, total RNA preparation and expression assays on tissues from animals with simultaneously implanted stromal cells and cancer cells. Note that the group measured as of the lowest value was used as normalization baseline per factor.
FIG. 68. Representative IHC images of SA-β-Gal staining chromatograms from tissues isolated from animals subjected to placebo or drug treatments. Scale bar, 100 μm. Right, Comparative statistical analysis of SA-β-Gal staining for tissues in mice mentioned above.
Senescence-associated β-galactosidase (SA-β-Gal) staining was performed following a previously reported procedure (Debacq-Chainiaux et al., 2009). Briefly, cells in culture dishes were washed with PBS and fixed at room temperature. Cells were fixed in 2% formaldehyde and 0.2% glutaraldehyde for 3 minutes. SA-β-Gal was used for staining with freshly prepared staining solution overnight at 37° C. Images were taken on the next day and the percentage of positive cells per unit area was calculated.
For pre-clinical chemotherapeutic studies, mice received subcutaneous implantation were given standard laboratory diets. […] The time points were on the first day of the third, fifth and seventh weeks, with a total of 3 cycles of treatment, and each cycle lasted for 2 weeks. After the course of treatment, mouse […] were collected for tumor measurement and histological analysis. […]

The test system of assay [2] is PC3 cells xenografted together with PSC27 cells. The assay can be described thus: PC3/PSC27 xenograft, tumor end volume after chemotherapy and/or PDK4-IN. Format: in vivo, SCID mice. On the procedure: All experimental mouse experiments were carried out in strict accordance with the relevant regulations of the Institutional Animal Care and Use Committee (IACUC), Shanghai Institutes for Biological Sciences, Chinese Academy of Sciences. Immuno-deficient mice ICR SCID mice (body weight about 25 g) aged about 6 weeks were used for animal experiments related to the present disclosure. Stromal cells PSC27 and epithelial cells were mixed at a ratio of 1:4, and each graft contained 1.25×10^6 cells for tissue remodeling. The xenograft tumors were implanted into mice by subcutaneous transplantation, and the animals were euthanized 8 weeks after the end of the transplantation surgery. […] For pre-clinical chemotherapeutic studies, mice received subcutaneous implantation were given standard laboratory diets. […] The time points were on the first day of the third, fifth and seventh weeks, with a total of 3 cycles of treatment, and each cycle lasted for 2 weeks. After the course of treatment, mouse […] were collected for tumor measurement and histological analysis. […] The chemotherapy experiment ended at the end of the 8th week, and the mice were dissected immediately after sacrifice, and the xenograft tumors were collected and used for pathological system analysis. To closely mimic clinical conditions involving chemotherapeutic drugs, the inventors designed a preclinical regimen incorporating a genotoxic drug (MIT) and/or the PDK4 inhibitor (PDK4-IN) (FIG. 63).

In assay [3] the test system is mice aged 24 to 27 months. The assay is described as follows: Lifespan appraisal of late-life mice. The conditions noted are these: PDK4-IN every two weeks, P<0.001 vs Vehicle. Format: in vivo, C57BL/6 mice. On the procedure: FIG. 91. Schematic design for lifespan appraisal of mice. Mice aged 24 to 27 months were administered either Vehicle or PDK4-IN every two weeks, with continuous monitoring of their survival and recording of maximum lifespan.
C57BL/6 mice aged 24 to 27 months were administered either Vehicle or PDK4-IN every two weeks intraperitoneally. The median survival of animals in each group was calculated and indicated. ***, P<0.001.
The earliest deaths occurred approximately 2 months after the last physical function test. C57BL/6 mice aged 19 to 21 months were housed at 3-5 animals per cage. Same as the transplanted mice, the mice were sorted by body weight and randomly assigned to each group, and treated in either control (vehicle) or drug (PDK4) group by persons blinded to the design of the preclinical trial. From the age of 24-27 months, the mice were treated with vehicle or PDK4-IN every 2 weeks, […] for 3 consecutive days at each time. During the course of the study, some mice were removed from their original cages in order to minimize the animal housing stress caused by long-term housing in a single cage. RotaRod and hanging tests were performed monthly because these tests were sensitive and noninvasive. […] During the experiment, no mice were excluded due to fighting, accidental death or dermatitis. For biostatistics, a Cox proportional hazard model was used for survival analysis. […]

In assay [4] the test system is senescent human stromal cells (PSC27). The assay is described as follows: Seahorse XF24 metabolic profiling of senescent stromal cells. It counts as cell-based. More on the design: ATP production / basal respiration / maximal respiration: dose or concentration left out as unconfirmed. The method, then: FIG. 26. OCR of stromal cells was measured using an XF24 Extracellular Flux Analyzer. In simple, 1.5 μM oligomycin, 0.5 μM FCCP and 0.5 μM Rot/Ant were injected sequentially in order into each well. The glycolysis rate was calculated as the difference between the maximum rate measured before injection and the last rate measured before glucose injection. All Seahorse data were normalized to cell numbers, with all metabolic parameters automatically calculated by WAVE software equipped in the Seahorse. OCR, oxygen consumption rate. Oligo, oligomycin. FCCP, carbonyl cyanide 4-(trifluoromethoxy) phenylhydrazone. Rot, rotenone. Ant, antimycin. […]
After 6 hours of drug treatment, the cells were simply washed 3 times with PBS, left in the culture medium for 7-˜10 days, and then the subsequent experiments were performed.
Next, the inventors measured the levels of extracellular fluids. […] Among them, HK2 and LDHA are glycolysis-related factors, whereas IDH2, IDH3, OGDH and CS are TCA cycle-involving enzymes. As overexpression of PDK4 per se in normal cells neither caused or abrogated senescence, nor affected the SASP (FIG. 38), the inventors reasoned that senescent cell metabolism was correlated with and likely underpinned by expression of key factors involved in glucose consumption and linked with production of pyruvate, lactate and multiple other metabolites.

Setting [5] is: PDK4-IN 10.0 mg/kg combined with MIT 0.2 mg/kg i.p., end of 8-week regimen.
Where [6] appears, read: senescence-associated change, PDK4-IN treated.

Turning to `O=C1c2ccccc2C(=O)c2c1cccc2-c1cnn(C2CCNCC2)c1` [PDK4-IN], the “SA-β-gal positivity in tumor tissues” value in assay [1] (histological staining, FIG. 68) is listed as “neither induced senescence nor inhibited senescence”. Besides, the “cellular senescence / SASP factor and senescence marker expression in vivo” value in assay [1] (single agent or in combination with MIT, FIGS. 66-67) is given as “neither induced nor affected cellular senescence”. Besides, in assay [2] (setting [5]), the “further decline of tumor volume over MIT alone” value was 35.5% and the “total tumor shrinkage compared to the control group” value stood at 72.6%. For the same compound, the “effect on tumor volume as single agent” value in assay [2] (PDK4-IN alone, 10.0 mg/kg i.p.) is “did not provide noticeable benefits”. Further, the “lifespan during the intervention period” value in assay [3] is on record as “significantly extended the lifespan”. In addition, in assay [4] (setting [6]), the “H^+ (proton) leak” value is listed as “reversed changes”, the lactate production entry was “reversed changes”, the non-mitochondrial oxygen consumption entry is reported as “reversed changes” and the pH fluctuation result is “reversed changes”. Further, in assay [4] (senescent cells, PDK4-IN-1), the ATP production result is reported as “further promoted”, the basal respiration entry is recorded as “further promoted” and the maximal respiration entry was “further promoted”.
